Laboratory results taken from US20070149916A1, “Dry matrices as drug reservoirs in electrotransport applications” (ALZA CORPORATION, priority 2005, published 2007).

Columns and labels:
[1] = aqueous solutions of apomorphine; cited from earlier work
[2] = transdermal electrotransport, FIGS. 5A and 5B
[3] = Stability of apomorphine in aqueous solution and in PEO matrices; type: physicochemical; settings: PEO films cast using 2:1 acetonitrile:methanol; low formate or non-radiation crosslinked PEO; FIG. 4
[4] = Stability of hydrocortisone hemisuccinate in PVOH hydrogels and PEO matrices (HPLC); type: physicochemical
Description: The stability of hydrocortisone hemisuccinate (HCHS), a hydrolytically unstable compound that forms hydrocortisone and succinic acid via hydrolysis, in PVOH hydrogels and PEO matrices was investigated.
In a separate set of experiments (FIGS. 3A and 3B), the stability of HCHS in PVOH hydrogels and PEO matrices was examined at 23° C. and 40° C. over a period of three days.

Row | in vitro flux in PEO films compared with PVOH hydrogels [2] | time over which formulations containing PEO were stable [3] | Compound | time to rapid oxidation in aqueous solutions [1] | stability of HCHS in PEO matrices vs PVOH hydrogels ([4]; 40° C., over a period of three days, FIGS. 3A and 3B) | stability of HCHS in PEO matrix compared with PVOH hydrogel (HPLC chromatogram) ([4]; PEO film made using acetonitrile as the solvent vs PVOH hydrogel, FIG. 2)
1 | comparable | up to 4 weeks | CN1CCc2cccc3c2[C@H]1Cc1ccc(O)c(O)c1-3 [apomorphine] | less than 30 minutes | – | –
2 | – | – | hydrocortisone hemisuccinate [HCHS] | – | Improved stability | more stable in the PEO matrix than in the PVOH hydrogel
